One may read the IC50 as the concentration that inhibits the measured activity by half. A high value points to weaker potency.

In ChEMBL document CHEMBL1909629, “Discovery of novel 3,5-disubstituted indole derivatives as potent inhibitors of Pim-1, Pim-2, and Pim-3 protein kinases” (Bioorg Med Chem Lett, 2011) one finds IC50 data, which are given here for 25 compounds.

A value given as a limit tells only on which side of the number the result lay.

Assay [1] concerns the target Serine/threonine-protein kinase pim-1 (Homo sapiens, UniProt P11309). Description: Inhibition of PIM1 using BAD peptide as substrate preincubated for 15 mins measured after 60 to 100 mins by luminescence assay.
Assay [2] has as its target Serine/threonine-protein kinase pim-3 (Homo sapiens, UniProt Q86V86). Description: Inhibition of PIM3 using BAD peptide as substrate preincubated for 15 mins measured after 60 to 100 mins by luminescence assay.
In assay [3] the target is Serine/threonine-protein kinase pim-2 (Homo sapiens, UniProt Q9P1W9). Description: Inhibition of PIM2 using BAD peptide as substrate preincubated for 15 mins measured after 60 to 100 mins by luminescence assay.
For assay [4], the target named is Mast/stem cell growth factor receptor Kit (Homo sapiens, UniProt P10721). Description: Inhibition of cKIT.
Assay [5] is described as follows: Inhibition of PDGFR.
The target of assay [6] is Vascular endothelial growth factor receptor 2 (Homo sapiens, UniProt P35968). Description: Inhibition of KDR.
Assay [7] addresses T1, Receptor-type tyrosine-protein kinase FLT3 (Homo sapiens, UniProt P36888).
T1 sequence (P36888 whole entry): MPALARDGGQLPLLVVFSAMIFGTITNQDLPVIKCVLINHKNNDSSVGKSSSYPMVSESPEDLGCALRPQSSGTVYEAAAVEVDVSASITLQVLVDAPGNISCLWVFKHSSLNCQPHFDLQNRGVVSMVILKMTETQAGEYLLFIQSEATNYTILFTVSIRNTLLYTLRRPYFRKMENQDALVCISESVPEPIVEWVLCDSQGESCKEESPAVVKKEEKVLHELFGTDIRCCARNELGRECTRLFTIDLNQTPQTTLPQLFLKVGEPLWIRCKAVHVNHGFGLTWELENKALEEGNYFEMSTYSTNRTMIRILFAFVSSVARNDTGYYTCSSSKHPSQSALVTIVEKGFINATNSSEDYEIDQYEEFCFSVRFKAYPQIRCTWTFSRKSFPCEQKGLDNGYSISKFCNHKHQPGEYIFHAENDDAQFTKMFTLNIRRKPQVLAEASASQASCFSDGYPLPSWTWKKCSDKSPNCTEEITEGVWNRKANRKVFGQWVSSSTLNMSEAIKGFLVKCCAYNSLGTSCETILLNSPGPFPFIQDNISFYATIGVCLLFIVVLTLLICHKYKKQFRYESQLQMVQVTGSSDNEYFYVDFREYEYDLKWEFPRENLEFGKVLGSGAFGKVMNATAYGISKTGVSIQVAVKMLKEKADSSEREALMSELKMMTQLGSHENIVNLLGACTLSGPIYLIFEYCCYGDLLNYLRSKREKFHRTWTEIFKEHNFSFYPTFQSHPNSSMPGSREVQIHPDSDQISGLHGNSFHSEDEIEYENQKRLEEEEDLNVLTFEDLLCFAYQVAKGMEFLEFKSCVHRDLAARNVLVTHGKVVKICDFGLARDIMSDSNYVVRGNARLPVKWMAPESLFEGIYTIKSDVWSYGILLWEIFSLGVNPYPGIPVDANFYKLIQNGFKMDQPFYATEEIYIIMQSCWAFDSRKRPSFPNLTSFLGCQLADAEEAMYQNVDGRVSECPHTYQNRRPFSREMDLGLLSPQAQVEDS
Description: Inhibition of FLT3.

Sequence of Serine/threonine-protein kinase pim-1 (P11309 whole entry): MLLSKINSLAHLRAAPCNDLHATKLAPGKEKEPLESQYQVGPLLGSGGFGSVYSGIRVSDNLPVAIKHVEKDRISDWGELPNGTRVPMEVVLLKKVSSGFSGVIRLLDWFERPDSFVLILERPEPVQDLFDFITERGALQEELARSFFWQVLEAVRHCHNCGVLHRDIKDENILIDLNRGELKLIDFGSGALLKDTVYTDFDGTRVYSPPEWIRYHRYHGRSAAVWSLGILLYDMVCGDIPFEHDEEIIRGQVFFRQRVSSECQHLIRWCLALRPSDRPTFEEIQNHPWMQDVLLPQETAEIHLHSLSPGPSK
Sequence of Mast/stem cell growth factor receptor Kit (P10721 whole entry): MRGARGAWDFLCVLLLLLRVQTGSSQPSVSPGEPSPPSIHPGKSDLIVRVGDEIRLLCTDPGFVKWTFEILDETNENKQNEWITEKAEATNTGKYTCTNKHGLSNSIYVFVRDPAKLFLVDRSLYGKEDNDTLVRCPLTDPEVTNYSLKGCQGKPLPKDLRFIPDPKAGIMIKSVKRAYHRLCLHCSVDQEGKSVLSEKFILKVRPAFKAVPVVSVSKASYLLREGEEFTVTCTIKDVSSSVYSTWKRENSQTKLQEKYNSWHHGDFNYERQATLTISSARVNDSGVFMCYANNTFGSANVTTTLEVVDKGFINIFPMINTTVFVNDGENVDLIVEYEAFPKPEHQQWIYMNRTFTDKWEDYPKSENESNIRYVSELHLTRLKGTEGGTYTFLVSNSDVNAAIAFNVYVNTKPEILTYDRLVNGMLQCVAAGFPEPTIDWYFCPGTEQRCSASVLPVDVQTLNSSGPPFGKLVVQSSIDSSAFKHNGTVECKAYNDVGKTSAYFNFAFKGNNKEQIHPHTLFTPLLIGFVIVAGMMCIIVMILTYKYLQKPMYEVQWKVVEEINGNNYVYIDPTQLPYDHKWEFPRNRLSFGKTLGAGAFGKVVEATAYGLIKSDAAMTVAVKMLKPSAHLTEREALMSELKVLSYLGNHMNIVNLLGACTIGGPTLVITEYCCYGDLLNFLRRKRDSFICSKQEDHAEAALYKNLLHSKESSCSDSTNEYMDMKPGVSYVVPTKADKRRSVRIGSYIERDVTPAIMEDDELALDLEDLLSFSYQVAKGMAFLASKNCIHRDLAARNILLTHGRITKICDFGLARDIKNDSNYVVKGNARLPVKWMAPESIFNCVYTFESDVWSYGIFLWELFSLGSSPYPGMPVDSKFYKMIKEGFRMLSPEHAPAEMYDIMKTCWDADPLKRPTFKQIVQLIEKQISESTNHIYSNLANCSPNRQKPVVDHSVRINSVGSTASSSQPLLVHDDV
Sequence of Serine/threonine-protein kinase pim-2 (Q9P1W9 whole entry): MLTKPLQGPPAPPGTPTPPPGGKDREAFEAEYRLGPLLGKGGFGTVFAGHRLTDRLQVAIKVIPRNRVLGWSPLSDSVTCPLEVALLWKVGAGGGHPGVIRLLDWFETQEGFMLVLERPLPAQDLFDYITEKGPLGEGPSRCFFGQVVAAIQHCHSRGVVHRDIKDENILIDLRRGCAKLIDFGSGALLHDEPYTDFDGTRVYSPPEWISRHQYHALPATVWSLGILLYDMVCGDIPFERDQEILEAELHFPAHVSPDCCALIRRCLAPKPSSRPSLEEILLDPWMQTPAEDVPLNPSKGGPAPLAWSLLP
Sequence of Vascular endothelial growth factor receptor 2 (P35968 whole entry): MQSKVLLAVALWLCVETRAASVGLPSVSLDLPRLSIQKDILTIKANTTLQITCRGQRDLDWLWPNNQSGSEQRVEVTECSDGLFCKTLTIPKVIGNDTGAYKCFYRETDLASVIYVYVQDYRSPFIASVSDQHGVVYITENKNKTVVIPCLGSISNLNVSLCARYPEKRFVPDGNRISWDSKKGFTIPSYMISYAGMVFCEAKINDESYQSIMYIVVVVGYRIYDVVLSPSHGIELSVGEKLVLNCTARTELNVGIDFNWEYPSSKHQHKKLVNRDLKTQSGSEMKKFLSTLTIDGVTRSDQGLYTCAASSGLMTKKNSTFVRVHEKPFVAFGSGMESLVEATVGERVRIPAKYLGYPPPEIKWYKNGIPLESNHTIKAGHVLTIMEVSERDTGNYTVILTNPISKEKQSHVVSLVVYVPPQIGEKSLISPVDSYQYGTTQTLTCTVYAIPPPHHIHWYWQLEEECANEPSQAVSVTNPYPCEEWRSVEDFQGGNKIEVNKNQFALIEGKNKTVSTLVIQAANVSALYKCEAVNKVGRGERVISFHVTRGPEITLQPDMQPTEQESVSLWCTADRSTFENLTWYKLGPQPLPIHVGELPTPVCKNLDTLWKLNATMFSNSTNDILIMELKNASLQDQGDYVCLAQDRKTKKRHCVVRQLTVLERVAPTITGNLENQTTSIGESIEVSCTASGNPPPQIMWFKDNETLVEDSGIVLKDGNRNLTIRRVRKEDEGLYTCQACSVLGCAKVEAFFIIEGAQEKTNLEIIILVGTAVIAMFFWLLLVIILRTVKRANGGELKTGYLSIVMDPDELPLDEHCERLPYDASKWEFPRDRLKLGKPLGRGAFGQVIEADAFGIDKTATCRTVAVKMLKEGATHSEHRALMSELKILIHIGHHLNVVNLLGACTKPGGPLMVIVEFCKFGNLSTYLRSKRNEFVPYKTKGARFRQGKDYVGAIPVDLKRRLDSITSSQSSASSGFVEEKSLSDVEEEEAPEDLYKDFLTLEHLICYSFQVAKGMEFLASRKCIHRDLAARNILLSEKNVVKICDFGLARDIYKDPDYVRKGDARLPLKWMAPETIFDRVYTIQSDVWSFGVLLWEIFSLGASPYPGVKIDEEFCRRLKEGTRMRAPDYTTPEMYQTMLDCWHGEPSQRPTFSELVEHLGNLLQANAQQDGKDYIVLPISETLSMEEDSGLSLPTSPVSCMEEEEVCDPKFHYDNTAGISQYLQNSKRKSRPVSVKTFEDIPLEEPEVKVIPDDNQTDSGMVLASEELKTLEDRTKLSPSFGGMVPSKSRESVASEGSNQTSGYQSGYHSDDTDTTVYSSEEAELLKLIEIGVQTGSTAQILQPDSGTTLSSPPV

Turning to `c1ncc(-c2ccc3[nH]cc(-c4ccc(N5CCNCC5)cc4)c3c2)cn1`, the IC50 in assay [1] is 2600 nM; in assay [2], 3300 nM; in assay [3], above 25000 nM.
For `Oc1ccc(-c2ccc3c(-c4ccc(N5CCNCC5)cc4)c[nH]c3n2)cc1`, the IC50 in assay [4] amounted to 1110 nM; in assay [1] it was 30 nM; in assay [5], 987 nM; in assay [6], 4760 nM; in assay [2], 58 nM; in assay [3] it was 283 nM. In assay [7], this compound returned a 50% inhibitory concentration (IC50) of 111 nM.
For the compound `Oc1ccc(-c2ccc3c(-c4ccc(N5CCNCC5)cc4)n[nH]c3n2)cc1`, the half-maximal inhibitory concentration (IC50) in assay [4] amounted to 7 nM; in assay [1], 9 nM; in assay [5], 6 nM; in assay [6], 18 nM; in assay [2], 12 nM; in assay [3], 39 nM. In assay [7], this compound showed an IC50 of 4 nM.
On to `Oc1ccc(-c2ccc3c(-c4ccc(N5CCNCC5)cc4)c[nH]c3c2)cc1`, for which the IC50 is above 25000 nM in assay [4]; 4 nM in assay [1]; above 25000 nM in assay [6]; 22 nM in assay [2]; 42 nM in assay [3]; above 25000 nM in assay [7].
For the compound `c1ccc(-c2ccc3c(-c4ccc(N5CCNCC5)cc4)n[nH]c3n2)cc1`, the values for the IC50 in assay [1], in assay [2] and in assay [3] were 1700 nM, 7400 nM and 7200 nM, respectively.
Taken in the same sequence, the figures for `COc1ccc(-c2ccc3c(-c4ccc(N5CCNCC5)cc4)n[nH]c3n2)cc1` were 4900 nM, 12800 nM and above 25000 nM.
Taken in the same sequence, the figures for `c1cc(-c2ccc3c(-c4ccc(N5CCNCC5)cc4)n[nH]c3n2)ccn1` were 2500 nM, 5800 nM and above 25000 nM.
Turning to `Nc1ccc(-c2ccc3c(-c4ccc(N5CCNCC5)cc4)n[nH]c3n2)cn1`, the IC50 in assay [1] is 15000 nM; in assay [2], 12000 nM; in assay [3], above 25000 nM.
Taken in the same sequence, the figures for `Nc1cc(-c2ccc3c(-c4ccc(N5CCNCC5)cc4)n[nH]c3n2)ccn1` were 170 nM, 1800 nM and 20000 nM.
For `NS(=O)(=O)c1ccc(-c2ccc3c(-c4ccc(N5CCNCC5)cc4)n[nH]c3n2)cc1`, in that order: 11000 nM, 10000 nM and above 25000 nM.
For `c1cc(-c2ccc3c(-c4ccc(N5CCNCC5)cc4)n[nH]c3n2)c2cc[nH]c2c1`, in that order: 110 nM, 260 nM and 650 nM.
Turning to `c1cncc(-c2ccc3[nH]cc(-c4ccc(N5CCNCC5)cc4)c3c2)c1`, the IC50 in assay [1] is 192 nM; in assay [2], 490 nM; in assay [3], 15000 nM.
Taken in the same sequence, the figures for `c1cc(-c2ccc3[nH]cc(-c4ccc(N5CCNCC5)cc4)c3c2)ccn1` were 2800 nM, 5700 nM and above 25000 nM.
For `c1ccc(-c2ccc3[nH]cc(-c4ccc(N5CCNCC5)cc4)c3c2)nc1`, in that order: 2100 nM, 14000 nM and above 25000 nM.
For `c1cnc(-c2ccc3[nH]cc(-c4ccc(N5CCNCC5)cc4)c3c2)cn1`, the IC50 in assay [1] turned out to be 530 nM; in assay [2], 960 nM; in assay [3], 13600 nM.
In the case of `Nc1ccc(-c2c[nH]c3ccc(-c4cnccn4)cc23)c(F)n1`, the IC50 in assay [1] was 250 nM; in assay [2], 310 nM; in assay [3], 5000 nM.
On to `Nc1ccc(-c2c[nH]c3ccc(-c4cncc(O[C@H]5CC[C@H](N)CC5)n4)cc23)c(F)n1`, for which the IC50 is below 2 nM in assay [1], 5 nM in assay [2] and 83 nM in assay [3].
As to `Nc1ccc(-c2c[nH]c3ccc(-c4cncc(N5CCNCC5)n4)cc23)c(F)n1`, the figures for the half-maximal inhibitory concentration (IC50) in assay [1], in assay [2] and in assay [3] were below 2 nM, 4 nM and 61 nM, respectively.
Taken in the same sequence, the figures for `Nc1ccc(-c2c[nH]c3ccc(-c4cncc(N5CCCC(N)C5)n4)cc23)c(F)n1` (stereo unspecified) were below 2 nM, 3 nM and 81 nM.
With `C[C@H](N)COc1cncc(-c2ccc3[nH]cc(-c4ccc(N)nc4F)c3c2)n1`, the IC50 in assay [1] is below 2 nM; in assay [2], below 2 nM; in assay [3] it was 56 nM.
`CC[C@H](N)COc1cncc(-c2ccc3[nH]cc(-c4ccc(N)nc4F)c3c2)n1`: the figures for the IC50 in assay [1], in assay [2] and in assay [3] were below 2 nM, 5 nM and 26 nM, respectively.
As for `CC(C)[C@H](N)COc1cncc(-c2ccc3[nH]cc(-c4ccc(N)nc4F)c3c2)n1`, the figures for the IC50 in assay [1], in assay [2] and in assay [3] were below 2 nM, 6 nM and 72 nM, respectively.
Taken in the same sequence, the figures for `CC(C)(C)[C@H](N)COc1cncc(-c2ccc3[nH]cc(-c4ccc(N)nc4F)c3c2)n1` were below 2 nM, 10 nM and 122 nM.
Taken in the same sequence, the figures for `Nc1ccc(-c2c[nH]c3ccc(-c4cncc(OC[C@@H](N)c5ccccc5)n4)cc23)c(F)n1` were below 2 nM, below 2 nM and 10 nM.
Consider `Nc1ccc(-c2c[nH]c3ccc(-c4cncc(OC[C@H](N)c5ccccc5)n4)cc23)c(F)n1`, for which the IC50 in assay [1] was below 2 nM; in assay [2], 5 nM; in assay [3], 20 nM.
